{
  "source": "PubChem BioAssay (NCI)",
  "assay_in_all_cases": "NCI tumour cell line growth inhibition, 48 h",
  "key": {"MDA-MB-435": {"test_system": "MDA-MB-435"}, "MDA-N": {"test_system": "MDA-N"}, "MOLT-4 leukemia": {"test_system": "MOLT-4 leukemia"}, "NCI-H226 lung": {"test_system": "NCI-H226 lung"}, "NCI-H23 lung": {"test_system": "NCI-H23 lung"}, "NCI-H460 lung": {"test_system": "NCI-H460 lung"}, "NCI-H522 lung": {"test_system": "NCI-H522 lung"}, "NCI/ADR-RES ovarian": {"test_system": "NCI/ADR-RES ovarian"}, "OVCAR-3 ovarian": {"test_system": "OVCAR-3 ovarian"}, "OVCAR-4 ovarian": {"test_system": "OVCAR-4 ovarian"}, "OVCAR-5 ovarian": {"test_system": "OVCAR-5 ovarian"}, "OVCAR-8 ovarian": {"test_system": "OVCAR-8 ovarian"}, "P388 leukemia": {"test_system": "P388 leukemia"}, "P388/ADR leukemia": {"test_system": "P388/ADR leukemia"}, "PC-3 prostate": {"test_system": "PC-3 prostate"}, "RPMI-8226 leukemia": {"test_system": "RPMI-8226 leukemia"}, "RXF 393 renal": {"test_system": "RXF 393 renal"}, "SK-MEL-2 melanoma": {"test_system": "SK-MEL-2 melanoma"}, "SK-MEL-28 melanoma": {"test_system": "SK-MEL-28 melanoma"}, "SK-MEL-5 melanoma": {"test_system": "SK-MEL-5 melanoma"}, "SK-OV-3 ovarian": {"test_system": "SK-OV-3 ovarian"}, "SN12C renal": {"test_system": "SN12C renal"}, "SN12K1 renal": {"test_system": "SN12K1 renal"}, "SR leukemia": {"test_system": "SR leukemia"}, "SW-620 colon": {"test_system": "SW-620 colon"}, "T-47D breast": {"test_system": "T-47D breast"}, "TK-10 renal": {"test_system": "TK-10 renal"}, "UACC-257 melanoma": {"test_system": "UACC-257 melanoma"}, "UACC-62 melanoma": {"test_system": "UACC-62 melanoma"}, "UO-31 renal": {"test_system": "UO-31 renal"}},
  "note": "Values joined by “and” are separate entries in the source; they are usually repeats but may differ in a detail not shown here. Equal values may be shown once.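 Where inhibition never reached the appropriate level, the endpoint shown equals the highest concentration tested. Otherwise, values were interpolated linearly from a five-concentration, 48-hour dose response in 96-well plates. Here, GI50 denotes the concentration required for 50% inhibition of growth. TGI is the concentration that stops growth completely.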",
  "data": [
    {"molecule": "CO[C@@]12[C@H](COC(N)=O)C3=C(C(=O)C(C)=C(N)C3=O)N1C[C@@H]1N[C@@H]12", "values": [
      {"measurement": "GI50", "setting": "MDA-MB-435", "value": "2.14 µM and 2.91 µM and 1.53 µM"},
      {"measurement": "TGI", "setting": "MDA-MB-435", "value": "6.92 µM and 12.7 µM and 15.3 µM"},
      {"measurement": "GI50", "setting": "MDA-N", "value": "2.11 µM and 2.67 µM"},
      {"measurement": "TGI", "setting": "MDA-N", "value": "7.44 µM and 19.1 µM"},
      {"measurement": "GI50", "setting": "MOLT-4 leukemia", "value": 0.271, "unit": "µM"},
      {"measurement": "GI50", "setting": "NCI-H226 lung", "value": "1.35 µM and 1.45 µM"},
      {"measurement": "TGI", "setting": "NCI-H226 lung", "value": "3.95 µM and 7.99 µM and 8.8 µM"},
      {"measurement": "GI50", "setting": "NCI-H23 lung", "value": 0.77, "unit": "µM"},
      {"measurement": "TGI", "setting": "NCI-H23 lung", "value": "1.43 µM and 3.86 µM and 4.56 µM"},
      {"measurement": "TGI", "setting": "NCI-H460 lung", "value": "1.03 µM and 1.48 µM"},
      {"measurement": "GI50", "setting": "NCI-H522 lung", "value": "1.1 µM and 1.18 µM"},
      {"measurement": "TGI", "setting": "NCI-H522 lung", "value": "3.85 µM and 4.17 µM and 8.07 µM"},
      {"measurement": "GI50", "setting": "NCI/ADR-RES ovarian", "value": 3.83, "unit": "µM"},
      {"measurement": "TGI", "setting": "NCI/ADR-RES ovarian", "value": "20 µM and 21.4 µM and > 100 µM"},
      {"measurement": "GI50", "setting": "OVCAR-3 ovarian", "value": "5.79 µM and 3.66 µM"},
      {"measurement": "TGI", "setting": "OVCAR-3 ovarian", "value": "8.8 µM and 14.4 µM and 34.4 µM"},
      {"measurement": "GI50", "setting": "OVCAR-4 ovarian", "value": 4.65, "unit": "µM"},
      {"measurement": "TGI", "setting": "OVCAR-4 ovarian", "value": "10.5 µM and 10.1 µM and 42.8 µM"},
      {"measurement": "GI50", "setting": "OVCAR-5 ovarian", "value": "2.69 µM and 1.65 µM"},
      {"measurement": "TGI", "setting": "OVCAR-5 ovarian", "value": "9.29 µM and 10.5 µM and 14 µM"},
      {"measurement": "GI50", "setting": "OVCAR-8 ovarian", "value": "1.52 µM and 0.925 µM"},
      {"measurement": "TGI", "setting": "P388 leukemia", "value": 9.62, "unit": "µM"},
      {"measurement": "TGI", "setting": "P388/ADR leukemia", "value": 16, "unit": "µM"},
      {"measurement": "GI50", "setting": "PC-3 prostate", "value": "2.65 µM and 4.99 µM"},
      {"measurement": "TGI", "setting": "PC-3 prostate", "value": "17.4 µM and 20 µM and 25.7 µM"},
      {"measurement": "GI50", "setting": "RPMI-8226 leukemia", "value": "2.03 µM and 1.88 µM"},
      {"measurement": "TGI", "setting": "RPMI-8226 leukemia", "value": "19.2 µM and 14.2 µM and 15.5 µM"},
      {"measurement": "GI50", "setting": "RXF 393 renal", "value": 1.23, "unit": "µM"},
      {"measurement": "TGI", "setting": "RXF 393 renal", "value": "6.36 µM and 6.07 µM and 3.77 µM"},
      {"measurement": "GI50", "setting": "SK-MEL-2 melanoma", "value": "4.21 µM and 2.54 µM"},
      {"measurement": "TGI", "setting": "SK-MEL-2 melanoma", "value": "4.96 µM and 7.5 µM and 6.61 µM"},
      {"measurement": "GI50", "setting": "SK-MEL-28 melanoma", "value": 2.18, "unit": "µM"},
      {"measurement": "TGI", "setting": "SK-MEL-28 melanoma", "value": "7.12 µM and 14.9 µM"},
      {"measurement": "GI50", "setting": "SK-MEL-5 melanoma", "value": 1.6, "unit": "µM"},
      {"measurement": "TGI", "setting": "SK-MEL-5 melanoma", "value": "1.22 µM and 3.25 µM and 1.69 µM"},
      {"measurement": "GI50", "setting": "SK-OV-3 ovarian", "value": 2.41, "unit": "µM"},
      {"measurement": "TGI", "setting": "SK-OV-3 ovarian", "value": "9.83 µM and 18 µM and 7.06 µM"},
      {"measurement": "GI50", "setting": "SN12C renal", "value": 0.995, "unit": "µM"},
      {"measurement": "TGI", "setting": "SN12C renal", "value": "9.59 µM and 25 µM and 30.8 µM"},
      {"measurement": "TGI", "setting": "SN12K1 renal", "value": 7.65, "unit": "µM"},
      {"measurement": "GI50", "setting": "SR leukemia", "value": 0.0345, "unit": "µM"},
      {"measurement": "GI50", "setting": "SW-620 colon", "value": 0.665, "unit": "µM"},
      {"measurement": "TGI", "setting": "SW-620 colon", "value": "13 µM and 9.44 µM and 24.2 µM"},
      {"measurement": "GI50", "setting": "T-47D breast", "value": "2.25 µM and 1.41 µM"},
      {"measurement": "GI50", "setting": "TK-10 renal", "value": 2.63, "unit": "µM"},
      {"measurement": "GI50", "setting": "UACC-257 melanoma", "value": 2.16, "unit": "µM"},
      {"measurement": "TGI", "setting": "UACC-257 melanoma", "value": "5.17 µM and 7.79 µM and 11.2 µM"},
      {"measurement": "GI50", "setting": "UACC-62 melanoma", "value": 0.952, "unit": "µM"},
      {"measurement": "TGI", "setting": "UACC-62 melanoma", "value": "2.64 µM and 7.74 µM and 2.19 µM"},
      {"measurement": "TGI", "setting": "UO-31 renal", "value": "6.88 µM and 0.959 µM"}
    ]}
  ]
}
